Data on four compounds can be found in patent publication US20040122001A1, “Pharmaceutical compounds” (priority 2000, published 2004).

The compound `NC(=O)c1ccc2c(c1)CCCN2CCN1CC=C(c2c[nH]c3cc(F)ccc23)CC1` yielded a melting point of 130 to 133 °C. As for `CNC(=O)c1ccc2c(c1)CCCN2CCN1CC=C(c2c[nH]c3cc(F)ccc23)CC1`, the melting point lay within 121 to 125 °C. In the case of `Fc1ccc2c(C3=CCN(CCC4OCCc5cc(Br)ccc54)CC3)c[nH]c2c1` (stereo not shown) it was 184 to 185.6 °C.

On to `O=C(NCCO)c1ccc2c(c1)CCCN2CCN1CC=C(c2c[nH]c3cc(F)ccc23)CC1`, for which the melting point lay within 136 to 140 °C.

As a reminder, the melting point is the temperature, or range, at which the solid turns liquid.
